Assay results as given in patent publication US8952177B2 (Janssen Pharmaceutica NV, priority 2013, dated 2015).
Structures can show the parent of a compound that is named as a salt. Where two headings read alike, the source gives them in different places.

Experiments:
[1] = tested on: leukotriene pathway in human whole blood (LTB4); experiment: Human whole blood assay (LTB4 after calcium ionophore A23187 stimulation); assay type: cell-based; conditions: human whole blood diluted 1:1 in RPMI, 15 min pre-incubation, A23187 7 μg/mL for 30 min at 37° Celsius
Outline: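 Heparinised human whole blood, diluted 1:1 in RPMI, was preincubated with compound for 15 min at 37° C. before stimulation with A23187 (7 μg/mL) for 30 min. Plasma LTB4 was measured by immunoassay kit and IC50 obtained by 4-parameter fit; single replicate per plate, blood from at least one donor.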

human FLAP = human FLAP (Homo sapiens (Human), UniProt P20292); experiment: FLAP binding assay (HTRF format); conditions: read-out: FLAP Binding wild type HTRF Ki
Outline: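 His6-tagged human FLAP in Sf-9 membranes competed against a FITC-labelled indole FLAP modulator in HTRF format; 2 h reaction, read as HTRF ratio. Ki and IC50 from averaged duplicate ratios over 2–20 runs of two plates each; parenthetical numbers give run count.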

[2] = human FLAP-containing Sf-9 membranes, 25 nM HTRF ligand, 2 h, average of runs

Sequence of human FLAP (P20292 whole entry): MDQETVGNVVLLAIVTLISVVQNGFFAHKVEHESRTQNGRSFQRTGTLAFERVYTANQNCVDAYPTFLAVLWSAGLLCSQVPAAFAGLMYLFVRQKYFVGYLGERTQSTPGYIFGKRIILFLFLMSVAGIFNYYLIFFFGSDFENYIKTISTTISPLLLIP

| SMILES | IC50 ([1]; Homo sapiens) | Ki (human FLAP; [2]) | IC50 [1] | Ki (human FLAP) |
| --- | --- | --- | --- | --- |
| CCC(CC)(Cc1nc2ccc(OCc3ccc(C)cn3)cc2n1Cc1ccc(OC(F)(F)F)cc1)C(=O)O [Example 22, 2-Ethyl-2-({6-[(5-methylpyridin-2-yl)methoxy]-1-[4-(trifluoromethoxy)benzyl]-1H-benzimidazol-2-yl}methyl)butanoic acid] | 1660 nM | 24 nM | – | – |
| Cn1ccc(COc2cc(F)c3nc([C@@H]4CCCC[C@@H]4C(=O)O)n(Cc4ccc(Br)cc4F)c3c2)n1 (racemic) [Example 94, racemic cis-2-{1-(4-Bromo-2-fluorobenzyl)-4-fluoro-6-[(1-methyl-1H-pyrazol-3-yl)methoxy]-1H-benzimidazol-2-yl}cyclohexanecarboxylic acid] | 340 nM | 2.4 nM | – | – |
| Cc1ccc(COc2ccc3nc([C@H]4CCCC[C@H]4C(=O)O)n(Cc4ccc(-c5ncc(Cl)cn5)cc4)c3c2)nc1 (racemic) [Example 80, racemic cis-2-{1-[4-(5-Chloropyrimidin-2-yl)benzyl]-6-[(5-methylpyridin-2-yl)methoxy]-1H-benzimidazol-2-yl}cyclohexanecarboxylic acid] | 300 nM | 3.3 nM | – | – |
| CCC(CC)(Cc1nc2ccc(OCc3ccc(C)cn3)cc2n1Cc1ccc(OC(F)(F)F)cc1F)C(=O)O [Example 23, 2-Ethyl-2-({1-[2-fluoro-4-(trifluoromethoxy)benzyl]-6-[(5-methylpyridin-2-yl)methoxy]-1H-benzimidazol-2-yl}methyl)butanoic acid] | 910 nM | 18 nM | – | – |
| Cn1ccc(COc2ccc3nc([C@@H]4CCCC[C@@H]4C(=O)O)n(Cc4ccc(OC(F)(F)F)cc4F)c3c2F)n1 (racemic) [Example 91, racemic cis-2-{7-Fluoro-1-[2-fluoro-4-(trifluoromethoxy)benzyl]-6-[(1-methyl-1H-pyrazol-3-yl)methoxy]-1H-benzimidazol-2-yl}cyclohexanecarboxylic acid] | 170 nM | 6.6 nM | – | – |
| Cn1cc(F)c(COc2ccc3nc([C@@H]4CCCC[C@@H]4C(=O)O)n(Cc4ccc(OC(F)(F)F)cc4F)c3c2)n1 (racemic) [Example 85, racemic cis-2-{6-[(4-Fluoro-1-methyl-1H-pyrazol-3-yl)methoxy]-1-[2-fluoro-4-(trifluoromethoxy)benzyl]-1H-benzimidazol-2-yl}cyclohexanecarboxylic acid] | 680 nM | 1.4 nM | – | – |
| Cn1cc(Cl)c(COc2ccc3nc([C@@H]4CCCC[C@@H]4C(=O)O)n(Cc4ccc(N5CCCCC5)cc4)c3c2)n1 (racemic) [Example 82, racemic cis-2-{6-[(4-Chloro-1-methyl-1H-pyrazol-3-yl)methoxy]-1-(4-piperidin-1-ylbenzyl)-1H-benzimidazol-2-yl}cyclohexanecarboxylic acid] | 170 nM | 7.9 nM | – | – |
| Cn1ccc(COc2ccc3nc([C@@H]4[C@H](C(=O)O)C4(C)C)n(Cc4ccc(OC(F)(F)F)cc4)c3c2)n1 (racemic) [Example 122, racemic cis-2,2-Dimethyl-3-{6-[(1-methyl-1H-pyrazol-3-yl)methoxy]-1-[4-(trifluoromethoxy)benzyl]-1H-benzimidazol-2-yl}cyclopropanecarboxylic acid] | 3400 nM | ~830 nM | – | – |
| CCC(CC)(Cc1nc2ccc(OCc3ccc(C)cn3)cc2n1Cc1cccc(Br)c1)C(=O)O [Example 14, 2-({1-(3-Bromobenzyl)-6-[(5-methylpyridin-2-yl)methoxy]-1H-benzimidazol-2-yl}methyl)-2-ethylbutanoic acid] | > 10000 nM | 56 nM | – | – |
| Cc1ccc(COc2cc(F)c3nc(CC4(C(=O)O)CCCC4)n(Cc4ccc(OC(F)(F)F)cc4)c3c2)nc1 [Example 72, 1-({4-Fluoro-6-[(5-methylpyridin-2-yl)methoxy]-1-[4-(trifluoromethoxy)benzyl]-1H-benzimidazol-2-yl}methyl)cyclopentanecarboxylic acid as the TFA salt] | – | – | 1930 nM | 60 nM |
| Cn1ccc(COc2ccc3nc([C@@H]4CCCC[C@@H]4C(=O)O)n(Cc4ccc(N5CC(F)(F)C5)cc4)c3c2)n1 (racemic) [Example 89, racemic cis-2-{1-[4-(3,3-Difluoroazetidin-1-yl)benzyl]-6-[(1-methyl-1H-pyrazol-3-yl)methoxy]-1H-benzimidazol-2-yl}cyclohexanecarboxylic acid] | 3610 nM | 32 nM | – | – |

The next lines start with results.

| IC50 ([1]; Homo sapiens) | Ki (human FLAP; [2]) | SMILES | IC50 [1] | Ki (human FLAP) |
| --- | --- | --- | --- | --- |
| 930 nM | 210 nM | CCC(CC)(Cc1nc2ccc(OCc3ccn(C)n3)cc2n1Cc1ccc(N2CCC(C(F)(F)F)CC2)cc1)C(=O)O [Example 190, 2-ethyl-2-((6-((1-methyl-1H-pyrazol-3-yl)methoxy)-1-(4-(4-(trifluoromethyl)piperidin-1-yl)benzyl)-1H-benzo[d]imidazol-2-yl)methyl)butanoic acid] | – | – |
| 710 nM | 30 nM | Cc1cnc(COc2ccc3nc(CC(C)(C)C(=O)O)n(Cc4ccc(N5CCC(F)CC5)cc4F)c3c2)c(F)c1 [Example 186] | – | – |
| 360 nM | 7.3 nM | CCC(CC)(Cc1nc2ccc(OCc3ccn(C)n3)cc2n1Cc1ccc(-c2ccc(C(F)(F)F)cc2)cc1F)C(=O)O [Example 187] | – | – |
| 140 nM | 0.47 nM | Cc1cnc(COc2ccc3nc([C@H]4CCCC[C@H]4C(=O)O)n(Cc4ccc(-c5ccc(C(F)(F)F)cc5)cc4)c3c2)c(F)c1 (single isomer, unassigned) [Example 139, (1R*,2S*)-2-(6-[(3-Fluoro-5-methylpyridin-2-yl)methoxy]-1-{[4′-(trifluoromethyl)biphenyl-4-yl]methyl}-1H-benzimidazol-2-yl)cyclohexanecarboxylic acid] | – | – |
| 140 nM | 1.4 nM | Cn1ccc(COc2ccc3nc([C@@H]4CCCC[C@@H]4C(=O)O)n(Cc4cccc(-c5ccc(C(F)(F)F)cc5)c4)c3c2)n1 (racemic) [Example 150, racemic cis-2-(6-[(1-Methyl-1H-pyrazol-3-yl)methoxy]-1-{[4′-(trifluoromethyl)biphenyl-3-yl]methyl}-1H-benzimidazol-2-yl)cyclohexanecarboxylic acid] | – | – |
| 690 nM | 30 nM | Cn1ccc(COc2ccc3nc([C@@H]4CCCC[C@@H]4C(=O)O)n(Cc4ccc(OC(F)(F)F)cc4Br)c3c2)n1 (racemic) [Example 104, racemic cis-2-{1-[2-Bromo-4-(trifluoromethoxy)benzyl]-6-[(1-methyl-1H-pyrazol-3-yl)methoxy]-1H-benzimidazol-2-yl}cyclohexanecarboxylic acid as the HCl salt] | – | – |
| 880 nM | 13 nM | Cc1cnc(COc2ccc3nc(CC(C)(C)C(=O)O)n(Cc4ccc(N5CC(C(F)(F)F)C5)cc4F)c3c2)c(F)c1 [Example 183, 3-(6-[(3-Fluoro-5-methylpyridin-2-yl)methoxy]-1-{2-fluoro-4-[3-(trifluoromethyl)azetidin-1-yl]benzyl}-1H-benzimidazol-2-yl)-2,2-dimethylpropanoic acid] | – | – |
| 840 nM | 15 nM | Cc1cnc(COc2ccc3nc(CC(C)(C)C(=O)O)n(Cc4c(F)cc(Br)cc4F)c3c2)c(F)c1 [Example 130, 3-{1-(4-Bromo-2,6-difluorobenzyl)-6-[(3-fluoro-5-methylpyridin-2-yl)methoxy]-1H-benzimidazol-2-yl}-2,2-dimethylpropanoic acid] | – | – |
| 800 nM | 15 nM | Cc1cnc(COc2ccc3nc(CC(C)(C)C(=O)O)n(Cc4ccc(N5CCC(C(C)(C)C)CC5)cc4)c3c2)c(F)c1 [Example 184, 3-{1-[4-(4-tert-Butylpiperidin-1-yl)benzyl]-6-[(3-fluoro-5-methylpyridin-2-yl)methoxy]-1H-benzimidazol-2-yl}-2,2-dimethylpropanoic acid] | – | – |
| 300 nM | 4 nM | Cc1ccc(COc2ccc3nc(C4CCCC[C@H]4C(=O)O)n(Cc4ccc(N5CCC(F)(F)CC5)cc4F)c3c2)nc1 (mixture of isomers) [Example 161, racemic cis-2-{1-[4-(4,4-Difluoropiperidin-1-yl)-2-fluorobenzyl]-6-[(5-methylpyridin-2-yl)methoxy]-1H-benzimidazol-2-yl}cyclohexanecarboxylic acid] | – | – |
| 48 nM | 5.2 nM | CCC(CC)(Cc1nc2ccc(OCc3ncc(C)cc3F)cc2n1Cc1ccc(N2CCC(C)CC2)cc1F)C(=O)O [Example 181, 2-Ethyl-2-({1-[2-fluoro-4-(4-methylpiperidin-1-yl)benzyl]-6-[(3-fluoro-5-methylpyridin-2-yl)methoxy]-1H-benzimidazol-2-yl}methyl)butanoic acid] | – | – |
| 2120 nM | 160 nM | Cc1ccc(Cn2c(CC(C)(C)C(=O)O)nc3ccc(OCc4ncc(C)cc4F)cc32)c(F)c1 [Example 127, 3-{1-(2-Fluoro-4-methylbenzyl)-6-[(3-fluoro-5-methylpyridin-2-yl)methoxy]-1H-benzimidazol-2-yl}-2,2-dimethylpropanoic acid] | – | – |
| 2110 nM | 150 nM | Cc1ccc(Cn2c([C@@H]3[C@H](C(=O)O)C3(C)C)nc3ccc(OCc4ccc(C)cn4)cc32)cc1 (racemic) [Example 121, racemic cis-2,2-Dimethyl-3-{1-(4-methylbenzyl)-6-[(5-methylpyridin-2-yl)methoxy]-1H-benzimidazol-2-yl}cyclopropanecarboxylic acid] | – | – |
| 920 nM | 7.2 nM | Cc1ccc(COc2ccc3nc([C@H]4CCCC[C@H]4C(=O)O)n(Cc4cccc(-c5ccc(C(F)(F)F)cc5)c4)c3c2)nc1 (racemic) [Example 145, racemic cis-2-(6-[(5-Methylpyridin-2-yl)methoxy]-1-{[4′-(trifluoromethyl)biphenyl-3-yl]methyl}-1H-benzimidazol-2-yl)cyclohexanecarboxylic acid] | – | – |
